Converted amounts (≈) assume the structure as drawn. Blank lines part the entries; values can stand above or below the compound they belong to.
What was measured:
Dipeptidyl peptidase 2 = Dipeptidyl peptidase 2 (Homo sapiens, UniProt Q9UHL4); assay: Inhibition of human recombinant DPP2
Dipeptidyl peptidase 8 = Dipeptidyl peptidase 8 (Homo sapiens, UniProt Q6V1X1); assay: Inhibition of human recombinant DPP8
hERG (KCNH2) = hERG (KCNH2) (Homo sapiens, UniProt Q12809); assay: Displacement of [3H]dofetilide from human ERG expressed in HEK293 cells at 10 uM
[1] = Apparent permeability from basolateral to apical side in MDCK cells; conditions: dog
[2] = Apparent permeability from apical to basolateral side in MDCK cells; conditions: dog
in vivo [3] = conditions: Sprague-Dawley, rat, po, 5 mg/kg
Description: Cmax in Sprague-Dawley rat at 5 mg/kg, po

[4] = Half life in Sprague-Dawley rat at 1 mg/kg, iv and 5 mg/kg, po; conditions: in vivo
in vivo [5] = conditions: Sprague-Dawley, rat, plasma, po, 5 mg/kg
Description: AUC in Sprague-Dawley rat at 5 mg/kg, po

[6] = Clearance in Sprague-Dawley rat plasma at 1 mg/kg, iv and 5 mg/kg, po
[7] = target: Voltage-gated inwardly rectifying potassium channel KCNH2 (Homo sapiens, UniProt Q12809); assay: Inhibition of human ERG by patch-clamp technique
[8] = Volume of distribution at steady state in Sprague-Dawley rat at 1 mg/kg, iv and 5 mg/kg, po; conditions: in vivo
[9] = Bioavailability in Sprague-Dawley rat at 1 mg/kg, iv and 5 mg/kg, po; conditions: in vivo
Cytochrome P450 2D6 = Cytochrome P450 2D6 (Homo sapiens, UniProt P10635); assay: Inhibition of CYP2D6; type: ADME
[10] = Tmax in human at 0.3 to 300 mg; type: ADME, organism-based; conditions: in vivo
Dipeptidyl peptidase 3 = target: T1, Dipeptidyl peptidase 3 (Homo sapiens, UniProt Q9NY33); assay: Inhibition of DPP3 in human erythrocytes; type: cell-based
T1 sequence (Q9NY33 whole entry): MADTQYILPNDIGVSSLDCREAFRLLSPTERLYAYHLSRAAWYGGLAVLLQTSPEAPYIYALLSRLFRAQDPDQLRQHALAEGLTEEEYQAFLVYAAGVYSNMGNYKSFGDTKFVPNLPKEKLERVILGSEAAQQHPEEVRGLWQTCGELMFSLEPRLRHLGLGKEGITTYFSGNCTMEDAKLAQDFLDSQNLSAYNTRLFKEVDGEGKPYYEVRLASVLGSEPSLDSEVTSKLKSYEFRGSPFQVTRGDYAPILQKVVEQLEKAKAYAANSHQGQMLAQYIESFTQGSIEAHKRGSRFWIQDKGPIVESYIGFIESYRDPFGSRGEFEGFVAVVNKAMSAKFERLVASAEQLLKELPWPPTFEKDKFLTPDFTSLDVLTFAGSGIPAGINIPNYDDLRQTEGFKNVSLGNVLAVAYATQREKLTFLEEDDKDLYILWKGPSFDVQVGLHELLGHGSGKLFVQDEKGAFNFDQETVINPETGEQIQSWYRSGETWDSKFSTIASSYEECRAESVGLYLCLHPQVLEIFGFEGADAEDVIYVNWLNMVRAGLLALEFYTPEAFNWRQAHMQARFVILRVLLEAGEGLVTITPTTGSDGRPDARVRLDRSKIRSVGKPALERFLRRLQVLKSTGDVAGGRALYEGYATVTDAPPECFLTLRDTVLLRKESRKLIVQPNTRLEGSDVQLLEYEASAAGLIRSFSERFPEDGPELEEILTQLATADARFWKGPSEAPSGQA

[11] = Cmax in cynomolgus monkey at 1 mg/kg, po; type: ADME, organism-based, Macaca fascicularis; set-up: dose 1 mg/kg, route oral; conditions: in vivo
[12] = AUC in cynomolgus monkey at 1 mg/kg, po; type: ADME, organism-based, Macaca fascicularis; set-up: dose 1 mg/kg, route oral; conditions: plasma
[13] = Fraction unbound in rat; type: ADME
[14] = Bioavailability in dog at 1 mg/kg, iv and 1 mg/kg, po; type: ADME, organism-based, Canis lupus familiaris; conditions: in vivo
Cytochrome P450 1A2 = target: T2, Cytochrome P450 1A2 (Homo sapiens, UniProt P05177); assay: Inhibition of CYP1A2; type: ADME
T2 sequence (P05177 whole entry): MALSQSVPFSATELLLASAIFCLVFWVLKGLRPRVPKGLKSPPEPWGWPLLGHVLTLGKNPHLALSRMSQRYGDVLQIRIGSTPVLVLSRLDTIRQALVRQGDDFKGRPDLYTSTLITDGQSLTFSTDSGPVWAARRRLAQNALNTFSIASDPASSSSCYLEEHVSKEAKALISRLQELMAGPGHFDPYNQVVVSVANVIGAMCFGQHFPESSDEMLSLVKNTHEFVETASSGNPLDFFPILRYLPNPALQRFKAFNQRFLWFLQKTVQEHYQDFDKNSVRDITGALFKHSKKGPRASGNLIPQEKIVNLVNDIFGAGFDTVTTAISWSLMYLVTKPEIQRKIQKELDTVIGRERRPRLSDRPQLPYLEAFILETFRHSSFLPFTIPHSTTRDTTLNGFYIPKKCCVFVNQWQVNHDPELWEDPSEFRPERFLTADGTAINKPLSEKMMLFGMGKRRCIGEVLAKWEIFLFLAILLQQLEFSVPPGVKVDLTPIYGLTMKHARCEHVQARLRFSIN

[15] = Volume of distribution at steady state in cynomolgus monkey at 1 mg/kg, iv and 1 mg/kg, po; type: ADME, organism-based, Macaca fascicularis; conditions: in vivo, read-out: Vdss
Cytochrome P450 2C9 = Cytochrome P450 2C9 (Homo sapiens, UniProt P11712); assay: Inhibition of CYP2C9; type: ADME
[16] = Clearance in cynomolgus monkey plasma at 1 mg/kg, iv and 1 mg/kg, po; type: ADME, organism-based, Macaca fascicularis
[17] = Bioavailability in cynomolgus monkey at 1 mg/kg, iv and 1 mg/kg, po; type: ADME, organism-based, Macaca fascicularis; conditions: in vivo
[18] = Volume of distribution at steady state in dog at 1 mg/kg, iv and 1 mg/kg, po; type: ADME, organism-based, Canis lupus familiaris; conditions: in vivo, read-out: Vdss
[19] = Cmax in dog at 1 mg/kg, po; type: ADME, organism-based, Canis lupus familiaris; set-up: dose 1 mg/kg, route oral; conditions: in vivo
Cytochrome P450 2C19 = Cytochrome P450 2C19 (Homo sapiens, UniProt P33261); assay: Inhibition of CYP2C19; type: ADME
[20] = Fraction unbound in dog; type: ADME, Canis lupus familiaris
[21] = Fraction unbound in monkey; type: ADME, Macaca mulatta; conditions: rhesus monkey
Prolyl endopeptidase = target: T3, Prolyl endopeptidase (Homo sapiens, UniProt P48147); assay: Inhibition of POP
T3 sequence (P48147 whole entry): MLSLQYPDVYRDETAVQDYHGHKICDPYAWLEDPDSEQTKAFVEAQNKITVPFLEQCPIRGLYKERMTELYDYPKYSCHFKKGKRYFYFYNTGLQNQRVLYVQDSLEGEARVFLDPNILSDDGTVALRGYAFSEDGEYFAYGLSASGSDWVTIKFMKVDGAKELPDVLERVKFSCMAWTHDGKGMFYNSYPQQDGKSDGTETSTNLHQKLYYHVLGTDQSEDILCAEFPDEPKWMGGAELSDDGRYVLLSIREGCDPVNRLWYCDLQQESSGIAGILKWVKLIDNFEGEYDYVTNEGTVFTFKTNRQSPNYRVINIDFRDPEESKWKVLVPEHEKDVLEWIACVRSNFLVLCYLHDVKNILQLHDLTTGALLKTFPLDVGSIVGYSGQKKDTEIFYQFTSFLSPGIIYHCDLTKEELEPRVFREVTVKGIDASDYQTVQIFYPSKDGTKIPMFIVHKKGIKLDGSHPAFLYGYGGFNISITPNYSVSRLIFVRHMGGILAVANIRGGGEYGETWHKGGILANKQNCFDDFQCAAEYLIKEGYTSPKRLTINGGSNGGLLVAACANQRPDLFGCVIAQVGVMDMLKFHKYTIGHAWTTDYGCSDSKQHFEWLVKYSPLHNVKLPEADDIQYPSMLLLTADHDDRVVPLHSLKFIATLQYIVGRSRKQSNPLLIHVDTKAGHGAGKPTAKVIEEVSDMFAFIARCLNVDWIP

[22] = Fraction unbound in human; type: ADME
[23] = Half life in dog at 1 mg/kg, iv and 1 mg/kg, po; type: ADME, organism-based, Canis lupus familiaris; conditions: in vivo
Cytochrome P450 3A4 = Cytochrome P450 3A4 (Homo sapiens, UniProt P08684); assay: Inhibition of CYP3A4; type: ADME
Rattus norvegicus = organism: Rattus norvegicus; assay: Ex vivo inhibition of DPP4 in Sprague-Dawley rat; type: functional, organism-based
[24] = Terminal half life in human at 0.3 to 300 mg; type: ADME, organism-based; conditions: in vivo, read-out: beta t1/2 (converted)
[25] = AUC in dog at 1 mg/kg, po; type: ADME, organism-based, Canis lupus familiaris; set-up: dose 1 mg/kg, route oral; conditions: plasma
[26] = Half life in cynomolgus monkey at 1 mg/kg, iv and 1 mg/kg, po; type: ADME, organism-based, Macaca fascicularis; conditions: in vivo
[27] = Clearance in dog plasma at 1 mg/kg, iv and 1 mg/kg, po; type: ADME, organism-based, Canis lupus familiaris
[28] = HEK293 cells that express human ERG, probe [3H]dofetilide

Sequence of Voltage-gated inwardly rectifying potassium channel KCNH2 (Q12809 whole entry): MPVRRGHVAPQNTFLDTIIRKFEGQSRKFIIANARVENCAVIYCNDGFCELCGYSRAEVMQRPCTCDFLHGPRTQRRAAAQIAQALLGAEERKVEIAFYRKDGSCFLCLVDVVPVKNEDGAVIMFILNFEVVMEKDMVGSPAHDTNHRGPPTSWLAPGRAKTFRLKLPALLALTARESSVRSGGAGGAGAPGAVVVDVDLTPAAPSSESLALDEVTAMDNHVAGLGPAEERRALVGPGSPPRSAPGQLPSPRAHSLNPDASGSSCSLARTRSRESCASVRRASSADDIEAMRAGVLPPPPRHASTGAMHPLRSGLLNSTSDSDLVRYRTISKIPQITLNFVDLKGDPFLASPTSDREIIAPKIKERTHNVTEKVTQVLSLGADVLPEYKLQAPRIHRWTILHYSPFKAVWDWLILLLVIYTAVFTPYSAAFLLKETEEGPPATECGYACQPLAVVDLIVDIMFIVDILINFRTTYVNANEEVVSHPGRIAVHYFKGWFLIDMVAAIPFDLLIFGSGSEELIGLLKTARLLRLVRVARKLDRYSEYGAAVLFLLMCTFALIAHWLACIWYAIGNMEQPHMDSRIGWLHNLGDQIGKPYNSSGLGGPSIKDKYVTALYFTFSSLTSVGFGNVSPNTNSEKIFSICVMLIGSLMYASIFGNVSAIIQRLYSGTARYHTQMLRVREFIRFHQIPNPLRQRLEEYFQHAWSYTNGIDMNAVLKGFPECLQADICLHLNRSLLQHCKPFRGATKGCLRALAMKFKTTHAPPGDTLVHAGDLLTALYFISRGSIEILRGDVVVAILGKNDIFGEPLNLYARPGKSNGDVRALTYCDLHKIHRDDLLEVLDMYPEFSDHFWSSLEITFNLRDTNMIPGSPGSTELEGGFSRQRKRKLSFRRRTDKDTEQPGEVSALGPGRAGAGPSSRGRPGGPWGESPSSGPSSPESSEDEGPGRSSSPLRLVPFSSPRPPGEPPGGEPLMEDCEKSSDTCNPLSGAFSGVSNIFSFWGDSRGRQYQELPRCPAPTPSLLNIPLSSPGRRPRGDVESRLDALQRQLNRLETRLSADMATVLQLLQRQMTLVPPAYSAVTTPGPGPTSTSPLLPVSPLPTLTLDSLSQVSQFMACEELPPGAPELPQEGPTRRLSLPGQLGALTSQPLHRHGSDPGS
Sequence of hERG (KCNH2) (Q12809 whole entry): as above
Sequence of Cytochrome P450 2C19 (P33261 whole entry): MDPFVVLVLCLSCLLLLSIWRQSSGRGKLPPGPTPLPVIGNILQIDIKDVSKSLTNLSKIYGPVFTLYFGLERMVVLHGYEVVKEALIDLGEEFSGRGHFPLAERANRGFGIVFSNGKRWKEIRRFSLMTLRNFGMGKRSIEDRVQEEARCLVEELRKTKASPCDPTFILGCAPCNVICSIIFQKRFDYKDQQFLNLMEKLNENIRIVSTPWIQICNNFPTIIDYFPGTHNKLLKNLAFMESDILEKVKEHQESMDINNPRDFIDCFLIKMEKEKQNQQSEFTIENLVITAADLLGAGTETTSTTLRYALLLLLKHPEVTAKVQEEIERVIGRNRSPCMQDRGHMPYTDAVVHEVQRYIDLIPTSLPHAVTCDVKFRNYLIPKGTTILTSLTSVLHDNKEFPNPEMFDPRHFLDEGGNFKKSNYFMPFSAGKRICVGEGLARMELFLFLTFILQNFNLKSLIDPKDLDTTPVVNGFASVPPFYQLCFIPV
Sequence of Cytochrome P450 2D6 (P10635 whole entry): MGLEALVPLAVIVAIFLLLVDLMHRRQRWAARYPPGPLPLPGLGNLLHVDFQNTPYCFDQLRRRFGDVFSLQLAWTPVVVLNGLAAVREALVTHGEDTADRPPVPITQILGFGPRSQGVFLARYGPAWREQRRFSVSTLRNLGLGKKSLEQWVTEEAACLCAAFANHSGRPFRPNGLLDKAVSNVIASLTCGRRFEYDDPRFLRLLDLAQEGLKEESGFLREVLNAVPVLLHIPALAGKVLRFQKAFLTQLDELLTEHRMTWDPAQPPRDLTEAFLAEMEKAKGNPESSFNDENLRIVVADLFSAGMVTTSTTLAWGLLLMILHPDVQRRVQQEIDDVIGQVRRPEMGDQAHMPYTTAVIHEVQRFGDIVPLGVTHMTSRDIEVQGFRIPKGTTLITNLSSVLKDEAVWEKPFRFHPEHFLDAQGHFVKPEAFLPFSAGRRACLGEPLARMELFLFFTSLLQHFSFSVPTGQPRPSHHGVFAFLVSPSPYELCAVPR
Sequence of Cytochrome P450 2C9 (P11712 whole entry): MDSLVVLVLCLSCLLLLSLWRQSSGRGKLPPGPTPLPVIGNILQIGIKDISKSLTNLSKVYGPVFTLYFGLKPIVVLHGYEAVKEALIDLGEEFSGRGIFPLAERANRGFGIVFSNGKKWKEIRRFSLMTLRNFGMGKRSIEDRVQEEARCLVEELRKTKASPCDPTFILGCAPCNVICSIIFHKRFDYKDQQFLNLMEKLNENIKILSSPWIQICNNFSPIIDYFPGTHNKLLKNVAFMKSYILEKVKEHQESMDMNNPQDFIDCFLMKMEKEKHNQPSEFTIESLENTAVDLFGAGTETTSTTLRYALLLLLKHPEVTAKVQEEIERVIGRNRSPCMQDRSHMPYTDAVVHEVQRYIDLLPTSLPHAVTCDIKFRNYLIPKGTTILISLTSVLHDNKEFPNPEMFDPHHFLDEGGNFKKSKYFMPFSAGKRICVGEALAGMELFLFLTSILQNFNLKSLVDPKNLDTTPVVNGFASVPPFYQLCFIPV
Sequence of Dipeptidyl peptidase 8 (Q6V1X1 whole entry): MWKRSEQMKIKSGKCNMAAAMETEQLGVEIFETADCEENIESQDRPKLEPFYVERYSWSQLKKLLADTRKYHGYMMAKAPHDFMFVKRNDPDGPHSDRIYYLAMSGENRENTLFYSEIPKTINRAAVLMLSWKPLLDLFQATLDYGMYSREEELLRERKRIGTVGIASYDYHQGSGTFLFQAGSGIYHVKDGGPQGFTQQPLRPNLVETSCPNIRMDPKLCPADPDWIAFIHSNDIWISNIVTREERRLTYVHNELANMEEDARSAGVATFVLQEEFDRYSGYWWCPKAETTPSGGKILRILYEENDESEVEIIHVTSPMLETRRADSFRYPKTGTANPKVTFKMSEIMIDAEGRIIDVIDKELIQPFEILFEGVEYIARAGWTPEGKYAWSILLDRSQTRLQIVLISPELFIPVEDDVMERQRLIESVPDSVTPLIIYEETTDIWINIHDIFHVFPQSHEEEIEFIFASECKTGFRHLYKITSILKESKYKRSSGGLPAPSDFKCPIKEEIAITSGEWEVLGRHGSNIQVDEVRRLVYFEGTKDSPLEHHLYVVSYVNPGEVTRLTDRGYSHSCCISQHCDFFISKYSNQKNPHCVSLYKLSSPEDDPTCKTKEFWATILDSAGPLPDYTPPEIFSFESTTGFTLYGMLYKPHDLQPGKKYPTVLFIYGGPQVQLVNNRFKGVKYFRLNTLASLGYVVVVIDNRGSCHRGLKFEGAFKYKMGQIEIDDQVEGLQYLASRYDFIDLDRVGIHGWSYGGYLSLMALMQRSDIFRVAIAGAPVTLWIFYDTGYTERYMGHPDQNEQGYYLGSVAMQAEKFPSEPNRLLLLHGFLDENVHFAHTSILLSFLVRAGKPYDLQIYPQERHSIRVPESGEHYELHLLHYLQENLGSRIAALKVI

Structure (SMILES): O=C([C@@H]1C[C@H](N2CCN(c3ncccn3)CC2)CN1)N1C[C@@H](F)[C@@H](F)C1
inhibition at 10 µM (hERG (KCNH2); hek293): 7.2%
Cmax (in vivo [3]): 1820 ng/mL
half-life [4]: 2.3 h
AUC (in vivo [5]): 3950 ng·h/mL
clearance [6]: 27 mL/min/kg
IC50 [7]: 54 µM
Vd [8]: 1.9 L/kg
bioavailability [9]: 93%

Structure (SMILES): O=C([C@@H]1C[C@H](N2CCN(c3ncccn3)CC2)CN1)N1C[C@@H](F)[C@H](F)C1
inhibition at 10 µM (hERG (KCNH2); hek293): -1.6%

Structure (SMILES): O=C([C@@H]1C[C@H](N2CCN(c3nc4cnccc4o3)CC2)CN1)N1CCC(F)(F)C1
inhibition at 10 µM (hERG (KCNH2); [28]): 8.1%

Structure (SMILES): O=C([C@@H]1C[C@H](N2CCN(c3nc4cccnc4o3)CC2)CN1)N1CCC(F)(F)C1
inhibition at 10 µM (hERG (KCNH2); [28]): 7.4%

Second part, led by results:

IC50 (Dipeptidyl peptidase 2): > 30 µM
IC50 (Dipeptidyl peptidase 8): > 30 µM
Structure (SMILES): O=C([C@@H]1C[C@H](N2CCN(c3ncccn3)CC2)CN1)N1CC(F)C1

Papp B→A [1]: 11.2 ×10⁻⁶ cm/s
Papp A→B [2]: 18.6 ×10⁻⁶ cm/s
Structure (SMILES): O=C([C@@H]1C[C@H](N2CCN(c3noc4ccccc34)CC2)CN1)N1CCC(F)(F)C1
inhibition at 10 µM (hERG (KCNH2); [28]): 26.7%

Cmax (in vivo [3]): 237 ng/mL
half-life [4]: 1.5 h
AUC (in vivo [5]): 276 ng·h/mL
Papp B→A [1]: 13.5 ×10⁻⁶ cm/s
clearance [6]: 61 mL/min/kg
Papp A→B [2]: 10.4 ×10⁻⁶ cm/s
Vd [8]: 1.8 L/kg
bioavailability [9]: 20%
Structure (SMILES): N#Cc1cccnc1N1CCN([C@@H]2CN[C@H](C(=O)N3CCC(F)(F)C3)C2)CC1
inhibition at 10 µM (hERG (KCNH2); [28]): -7.3%
IC50 [7]: > 10 µM

IC50 (Cytochrome P450 2D6): > 30 µM
Tmax [10]: 0.5 h
IC50 (Dipeptidyl peptidase 3): > 30 µM
Cmax [11]: 517 ng/mL
AUC [12]: 843 ng·h/mL
fraction unbound [13]: 0.8
bioavailability [14]: 95%
IC50 (Cytochrome P450 1A2): > 30 µM
Vd [15]: 1 L/kg
Cmax (in vivo [3]): 1410 ng/mL
half-life [4]: 2.5 h
IC50 (Cytochrome P450 2C9): > 30 µM
clearance [16]: 7.6 mL/min/kg
bioavailability [17]: 71%
Vd [18]: 0.7 L/kg
Cmax [19]: 1530 ng/mL
IC50 (Cytochrome P450 2C19): > 30 µM
fraction unbound [20]: 0.8
fraction unbound [21]: 0.8
IC50 (Prolyl endopeptidase): > 30 µM
fraction unbound [22]: 0.8
AUC (in vivo [5]): 2400 ng·h/mL
half-life [23]: 7.6 h
IC50 (Cytochrome P450 3A4): > 30 µM
IC50 (Rattus norvegicus): 1.3 ng/mL (≈ 3.55 nM)
half-life [24]: 15.1 h
clearance [6]: 38 mL/min/kg
AUC [25]: 7160 ng·h/mL
half-life [26]: 7.6 h
clearance [27]: 3.7 mL/min/kg
Vd [8]: 1.9 L/kg
bioavailability [9]: 109%
Structure (SMILES): O=C([C@@H]1C[C@H](N2CCN(c3ncccn3)CC2)CN1)N1CCC(F)(F)C1 [GOSOGLIPTIN]
inhibition at 10 µM (hERG (KCNH2); hek293): 14.9%
Emax (Rattus norvegicus): 98%
IC50 [7]: 126 µM
